Assay results from patent US4020111A, “Propynyloxy alkyl arene insecticides” (priority 1975, dated 1977).

Key:
[1] = test system: polyvalent resistant (CH strain) houseflies; test: whole plant or invertebrate; assay type: in vivo, housefly (CH strain); conditions: Musca domestica, topical, 24 h
Procedure: The effect of O-(2-propynyl) oximes with Dimetilan and with GS 13798 was obtained from tests on polyvalent resistant (CH strain) houseflies that had been chilled and to the dorsal region of which was applied an acetone solution of synergist and insecticide at a ratio of two to one. Duplicate tests were performed using 10 four to five-day old female houseflies per test. After dosage, the flies were put in a plastic petri dish with cotton soaked in a sugar-water solution. These doses of insecticide used without synergist caused 10-40% mortality.
(§1) In Table IX, and in the tables following it, the doses of topically applied insecticides and of synergists unless otherwise noted are expressed as micrograms per fly (μg/fly).
The effect of compounds II-C, II-D and II-E with Dimetilan and GS 13798 was determined, following the procedure of Example 5, from tests on polyvalent resistant (CH strain) houseflies. These doses of insecticide used without synergist caused 10-40% mortality.
(§2) The synergistic effect with GS 13005 of compounds I-A, I-B, I-D, I-E, I-F, I-G and I-I was determined from topical application tests to IN/WHO strain, Rutgers A strain and polyvalent CH strain houseflies using the procedures of Example 5. The percent kills of the IN/WHO strain flies after 24 hours are shown in Table XXVIII; of the Rutgers A strain, in Table XXIX; and of the polyvalent CH strain, in Table XXX. The doses of insecticide alone to the CH strain files caused 10-40% mortality.
(§3) The synergistic effect with Diazinon and GS 13005 of various of the benzyl 2-propynyl ethers identified in Tables II and IIa was determined by topical application tests on IN/WHO strain, and Rutgers A strain and polyvalent, resistant, CH strain houseflies using the procedures of Example 5. The percent kills after 24 hours of IN/WHO strain flies are shown in Table XXXI; of Rutgers A strain flies, in Table XXXII; and of CH strain flies, in Table XXXIII. The doses of insecticide alone to the CH strain flies caused 10-40% mortality.
The synergistic effect with pyrethrum of various synergist compounds was determined by topical application tests on polyvalent, resistant CH strain houseflies following the procedure of Example 5. Application of the insecticide alone caused 10-40% mortality.

[2] = test system: IN/WHO strain house flies; test: topical application test, percent kill after 24 hours, IN/WHO strain; assay type: in vivo, house fly (susceptible IN/WHO strain)
Procedure: as §1
The synergistic effect of O-(2-propynyl) oximes with mobam was determined from topical application tests on susceptible, female, IN/WHO strain house flies and from tests on resistant, female, Rutgers A strain house flies. The synergist and insecticide were dissolved in ACS Grade acetone in such quantities that a 1.0μ liter volume applied to the thorax of 3-to-5 day old CO2 -anesthetized female adult house flies contained the desired dosage. After being treated, the flies were confined, 10 to a plaster petri dish, with 3-5 dishes/treatment, and held for 24-hr. observation of mortality. Reconstituted skim milk on cotton dental wicks was provided during the holding period. The percent kills after 24 hours are shown in Table X for the IN/WHO strain and Table XI for the Rutgers A strain.
The synergistic effect of benzyl 2-propynyl ethers with mobam was determined from topical application tests on IN/WHO and Rutgers A strain houseflies, following the procedure of Example 5. The percent kills after 24 hours are shown in Table XIV for the IN/WHO strain and in Table XV for the Rutgers A strain.
The effects of varying the insecticide dose and the synergist-insecticide ratio are further illustrated, with synergist compounds II-D, II-E, II-F and Mobam insecticide, in Tables XVI, XVII and XVIII.
The synergistic effect on IN/WHO flies of synergist compound II-K with Dimetilan, pyrolan, Baygon and HRS 1422 is illustrated by the 24 hour percent mortality data in Tables XIX, XX and XXI.
The effect on IN/WHO flies of synergist compound IV-C, identified in Table IV, with mobam was determined by the topical application procedure of Example 5.
The synergistic effect with Diazinon of compounds I-B, I-D, I-F, I-G, I-H and I-I, identified in Tables I and Ia, was determined from topical application tests on IN/WHO strain houseflies and on Rutgers A strain houseflies by the procedure of Example 5. The percent kills after 24 hours are shown in Table XXV for the IN/WHO strain and Table XXVI for the Rutgers A strain.
as §2, §3
The synergist effect on IN/WHO flies of synergist compound II-K with Gardona and Bidrin is illustrated by the 24 hour percent mortality data in Tables XXXIV and XXXV.
The synergistic effect on IN/WHO strain flies and Rutgers A strain flies of compound IV-C with GS 13005 and with Diazinon was determined by the topical application procedure of Example 5. The percent kills of IN/WHO strain flies after 24 hours are shown in Tables XXXVI and XXXVII; the percent kills of Rutgers A strain flies are shown in Tables XXXVIII and XXXIX.

[3] = test system: Wilson strain house flies; assay type: in vivo, house fly (susceptible Wilson strain); conditions: for Contact Synergistic Ratio, Carbaryl (LC50 insecticide alone / LC50 with synergist): in vivo; for Contact Synergistic Ratio, Pyrolan (LC50 insecticide alone / LC50 with synergist): synergist to insecticide 5:1 by weight, 24 h
Procedure: The required solutions of the insecticide and of the synergist compound were prepared in acetone at a concentration of one milligram per milliliter. One-pint wide mouth glass jars were coated wiith the appropriate insecticide-synergist combination by rolling the jars containing aliquots of the appropriate solutions diluted to three milliliters with acetone to deposit, by evaporation, a film of the test materials. The flies were transferred under carbon dioxide anesthesia and held in the jar at room temperature. Perforated aluminum foil was used to cover the jars and to hold cotton saturated with 10% sugar solution. Counts were made at intervals, but the recorded mortality was based on 24-hour kill, rather than knockdown. All prostrate nonmoving flies were considered dead. A determination was then made of the contact synergistic ratio [SR], which is the ratio of the LC50 of insecticide alone to the LC50 of the insecticide when applied together with the synergist. The LC50 of the insecticide was estimated from a log-probit plot of percent kill versus dosage. […] The LC50 of the combination of insecticide and synergist was determined at a synergist to insecticide parts by weight ratio of five to one.

mice [4] = test: extension of Secobarbital sleeping time by synergists; assay type: in vivo, Swiss albino white male mice; conditions: Secobarbital 37 mg/K; for Relative Sleeping Time: treated/control
Procedure: (§4) The selectivity of the synergist compounds of this invention is illustrated by the results of sleeping-time extension tests and of acute toxicity tests on Swiss albino white male mice.
(§5) The effect of various synergist compounds on sleeping time of sodium secobarbital [Secobarbital] and of 3,3-diethyl-5-methyl-2,4-dioxypiperidine [Noludar] was determined by administering the drug, with and without synergist, to approximately 38-day old male mice weighing from 25 to 30 grams. Synergists were administered in each of two doses, 74.0 mg/kg (dilution being 2.0 mg/0.1 ml corn oil), and 110.0 mg/kg (dilution 3.0 mg/0.1 ml oil). Secobarbital was administered at a dose of 37.0 mg/kg (dilution 1.0 mg/0.1 ml water). Noludar was administered at a dose of 110.0 mg/kg (dilution 3.0 mg/0.1 ml water). The synergist was administered one hour prior to administration of the Secobarbital or Noludar. Secobarbital and Noludar sleeping times were obtained for both the control (drug only) and the treated (synergist plus drug) mice by noting the time lapse between the administration of the drug and the recovery of the righting reflex, i.e. when the animal regains conciousness and can walk up an inclined wooden tray with coordination. The relative sleeping time (R.S.) was noted. The R.S. is the extended sleeping time in the treated mice (synergist plus drug) divided by the sleeping time in the control mice (drug only). The mean sleeping time for the treated mice and the R.S. are shown on Table XXXXIV for various synergist compounds.

mice [5] = test: extension of Noludar sleeping time by synergists; assay type: in vivo, Swiss albino white male mice; conditions: Noludar 110 mg/K, synergist 110 mg/K; for Relative Sleeping Time: treated/control
Procedure: as §4, §5

mice [6] = test: synergism of acute toxicity of Dimetilan, GS 13005, Secobarbital and Methadone (intraperitoneal); assay type: in vivo, Swiss albino white male mice; conditions: for number of mice dead: 48 hours, of eight mice
Procedure: The synergism of the acute toxicity of Dimetilan by various synergists was determined by tests on Swiss albino, white male mice aged 5 to 6 weeks and weighing 23 to 27 grams. The synergists and insecticides were dissolved in corn oil and the drugs were dissolved in distilled water. All compounds were administered intraperitoneally by injection in the lower quadrent of the abdomen. The synergist was administered in 0.1 ml of corn oil 1 hour prior to administration of the insecticide. Eight mice were treated, per dosage, with each synergist. The mice were watched for a minimum of 6 hours while held in a glass jar with bedding individually after intraperitoneal injection of the test solutions. Lethality was noted, the animals were weighed and transferred in cages, and food and water were supplied. Control mice were given 0.1 ml of corn oil at the time of administration of the synergist to the test mice and 0.1 ml corn oil plus Dimetilan at the time of administration of the insecticide to the test mice.
By the same procedure, the synergism of acute toxicity of GS 13005, Secobarbital and 6-dimethylamino-4,4-diphenyl-3-heptanone [Methadone] was determined.

mice [7] = test: acute toxicity of Dimetilan alone and of synergist alone (intraperitoneal); assay type: in vivo, Swiss albino white male mice; conditions: synergist alone 1000 mg/kg ip, 72 hours, of eight mice
Procedure: To determine the acute toxicity of dimetilan alone, eight dosage levels of Dimetilan, ranging from 4 to 32 mg per kg wer applied to eight, Swiss, albino, white, male mice per dosage level. The mice weighed approximately 23 to 27 grams and were five to size weeks old. The Dimetilan was administered intraperitoneally in 0.1 ml of corn oil one hour after the administration of the same dose of corn oil alone.
To determine the acute toxicity of the synergist alone, various synergists were administered intraperitoneally at a dose of 1000 mg/kg to each of a group of eight mice. The number of animals dead at the end of 72 hours is reported in the left hand column of Table XXXXVI.

[8] = Dimetilan 8 mg/kg + synergist 240 mg/kg ip
[9] = Dimetilan 8 mg/kg + synergist 80 mg/kg ip

SMILES | Contact Synergistic Ratio, Carbaryl (LC50 insecticide alone / LC50 with synergist) [3] | Contact Synergistic Ratio, Pyrolan (LC50 insecticide alone / LC50 with synergist) [3] | Relative Sleeping Time (mice [4]; synergist 110 mg/K) | Mean Sleeping Time (mice [5]) [min] | Relative Sleeping Time (mice [5]) | number of mice dead (mice [6]; [8]) | other results
CCOP(=S)(OCC)Oc1cc(C)nc(C(C)C)n1 [Diazinon, O,O-diethyl O-(2-isopropyl-4-methyl-6-pyrimidyl) phosphorothioate, reference compound] | – | – | – | – | – | – | mortality at 5 µg/fly ([1]; read-out: mortality, insecticide alone): 10 to 40%; percent kill after 24 hours ([2]; Diazinon alone 0.03 μg/fly, 1440 min): 5%
CNC(=O)Oc1cccc2ccc(C)nc12 [GS 13798, 8-(2-methylquinolyl)-N-methylcarbamate, reference compound] | – | – | – | – | – | – | mortality at 1 µg/fly ([1]; read-out: mortality, insecticide used without synergist): 10 to 40%
C#CCOCc1cc(Cl)c(Cl)cc1Cl [II-F] | 150 | 15 | 1.0 | 38 | 1.3 | 0 | percent mortality 24 hours ([2]; Mobam 0.13 μg/fly, synergist/insecticide 5/1): 23%; Mean Sleeping Time (mice [4]; synergist 110 mg/K): 46 min
C#CCn1ncc2ccc(Cl)cc21 [III-D] | 250 | 25 | 1.2 | 45 | 1.5 | 1 | Mean Sleeping Time (mice [4]; synergist 110 mg/K): 55 min
C#CCOC(c1ccc(Cl)cc1Cl)C(C)[N+](=O)[O-] (stereo not shown) [IV-A, 2-propynyl 1-(2,4-dichlorophenyl)-2-nitropropyl ether] | 134 | 10 | – | 78 | 2.7 | 7 | Mean Sleeping Time (mice [4]; synergist 74 mg/K): 56 min; Relative Sleeping Time (mice [4]; synergist 74 mg/K): 2.3; number of mice dead (mice [6]; [9]): 4
Cc1cc(OC(=O)N(C)C)n(-c2ccccc2)n1 [Pyrolan, 3-methyl-1-phenyl-5-pyrazolyl-N-dimethylcarbamate, reference compound] | – | – | – | – | – | – | LC50 of insecticide alone ([3]; insecticide alone, 24-hour kill): 0.15 mg/jar; 24 hour percent mortality ([2]; Pyrolan alone 0.63 μg/fly): 0%; 24 hour percent mortality ([2]; Pyrolan alone 1.3 μg/fly): 3%; 24 hour percent mortality ([2]; Pyrolan alone 2.5 μg/fly): 10%; 24 hour percent mortality ([2]; Pyrolan alone 5.0 μg/fly): 43%
CCOCCOCCOC(C)Oc1ccc2c(c1)OCO2 (stereo not shown) [Sesoxane, reference compound] | – | – | 8.3 | – | 3.1 | 8 | Relative Sleeping Time (mice [4]; synergist 74 mg/K): 6.1; number of mice dead (mice [7]): 1; number of mice dead (mice [6]; [9]): 8; mice lethality (number dead) (mice [6]; GS 13005 71 mg/kg + synergist 213 mg/kg): 0; mice lethality (number dead) (mice [6]; Methadone 32 mg/kg + synergist 215 mg/kg): 5; mice lethality (number dead) (mice [6]; Secobarbital 90 mg/kg + synergist 215 mg/kg): 6
